Data from publication PMC11513854, “De novo GTP synthesis is a metabolic vulnerability for the interception of brain metastases” (Cell Reports Medicine, 2024).

Tests used:
lung-BMIC line (BT478) = assay: Dose-response assay, PrestoBlue; assay type: cell-based, human; conditions: Homo sapiens; BT478, 72-h treatment, PrestoBlue; N/A, not applicable; read-out: Lung-BM IC50
Description: (§1) For preliminary drug screening, drugs were plated at a concentration of 10 μM in a 96-well plate, in triplicate at a density of 1000 cells/well, and incubated at 37°C with a humidified atmosphere of 5% CO2 for three days. Vehicle controls for cell death are used in each functional experiment. Following treatment, PrestoBlue (20 μL, Invitrogen), a resazurin-based cell viability reagent and fluorescence indicator of cell metabolism, was added to each well to estimate proliferation approximately 2 h prior to measuring fluorescence intensity via FLUOstar Omega Fluorescence 556 Microplate reader (BMG LABTECH) at an excitation and emission wavelength of 540 nm and 590 nm, respectively. Results were analyzed using Omega analysis software.
(§2) Dose-response assays were conducted using the same protocol apart from drugs being plated using 2-fold serial dilutions (20 μM - 39 nM) as previously described.[66] The half maximal inhibitory concentration (IC50) is determined by plotting percent cell viability by the logarithmic concentration of drug. IC80 concentrations will be used for subsequent functional assays (cell proliferation, sphere formation), as determined by the following formula: ICF=100−F/F^1/H×IC50 where F = fraction of maximal response and H = hill slope.

neural stem cells = assay: Dose-response assay, PrestoBlue, normal brain cell control; assay type: cell-based; conditions: Homo sapiens, 72-h treatment, N/A, not applicable
Text: BM cell lines from primary lung (BT478, BT530), breast (BT923, BT930) and melanoma (BT673, BT917) cancers are derived from primary patient samples with written consent from the patients and approved by the Hamilton Health Sciences McMaster Health Sciences Research Ethics Board (REB #07366), in compliance with Canada’s Tri-Council Policy Statement on the Ethical Conduct for Research Involving Humans and International Ethical guidelines for Biomedical Research Involving Human Subjects. MDA-MB-231 was purchasedfrom American Type Culture Collection and used to generate a brain metastasis derivate following injection into the mammary fat pad and isolation from the brain at human endpoint. Cell lines are maintained in NeuroCult Complete (NCC) media consisting of NeuroCult NS-A Basal Medium (Stemcell technology #05750) and supplemented with 50 mL of NeuroCult Supplement, 20 ng/mL epidermal growth factor (EGF), 10 ng/mL fibroblast growth factor (FGF), 2 μg/mL heparin and 1% penicillin-streptomycin. Human fetal neural stem cells (hNSCs) are derived in-house using a previously described protocol.[62] Normal human astrocytes are purchased from American Type Culture Collection. All cell lines were maintained at 37°C with a humidified atmosphere of 5% CO2.
as §2, with “The” for “Dose-response assays were conducted using the same protocol apart from drugs being plated using 2-fold serial dilutions (20 μM - 39 nM) as previously described.[66] The”

MDR1 = assay: Bi-directional permeability via MDR1-MDCKII cells; assay type: in vitro ADME; conditions: dog, MDCK-MDR1, pH 7.4; 2 μM (digoxin 10 μM), 2.5 h
Description: (§3) MDR1-MDCKII permeability assays were performed by Wuxi AppTec Co. Briefly, MDR1-MDCK1 cells were seeded onto polycarbonate membranes in 96-well insert system plates and allowed to develop into monolayers. […] The plate was incubated for 2.5 h (37°C, 5% CO2) and the media was sampled on either side and the compound present was quantified by LC-MS/MS and the concentrations were used to calculate the efflux ratio. Digoxin (10 μM), nadolol (2 μM), and metoprolol (2 μM) were used as controls.

MDR1-MDCKII cells = assay: Bi-directional permeability via MDR1-MDCKII cells; assay type: in vitro ADME
Description: as §3

[1] = Brain homogenate binding, equilibrium dialysis; assay type: in vitro ADME, mouse; conditions: CD-1, mouse, pooled brain homogenate, pH 7.4, 37°C
Description: The samples were applied to a dialysis well plate and sealed with dialysis membrane. Dialysis buffer (100 mM sodium phosphate pH 7.4, 150 mM NaCl) was applied to opposite side of the membrane (receiver well of the plate), and samples were incubated at 37°C with 5% CO2 for 4 h. Following completion of incubation period, samples were recovered from each side of the dialysis membrane and processed by protein precipitation, and analysis by LC-MS/MS for compound concentration. A corresponding set of samples was also prepared and stop solution (acetonitrile containing 200 ng/mL tolbutamide and 200 ng/mL labetalol) was immediately added, and samples were obtained from each side of the dialysis plate for mass spectrometric analysis.

[2] = tested on: patient-derived lung-BMIC line (BT478); assay: Preliminary drug screen of CMap compounds, PrestoBlue viability; assay type: cell-based, human; conditions: 10 μM, 72 h, PrestoBlue readout
Text: In this work, we aimed to identify potential druggable targets for BM, by characterizing the transcriptomes of pre-metastatic lung-, breast-, and melanoma-BMICs (see Figure 1A).[13]^,[14] We identified 3,951 genes that are commonly differentially expressed in the pre-metastatic cohort of cells compared to BMICs isolated from established patient tumors (Figure 1C).[14] We input the shared gene signature of pre-metastatic BMICs (defined by the commonly shared gene signature from BMICs of all three primary tumor cohorts) as a query signature for computational CMap[17] analysis to identify compounds that evoke opposing transcriptional changes (see Figure 1A). […]
as §1, with “Vehicle controls for cell death are used in each functional experiment.” left out

IC50 (lung-BMIC line (BT478))	Papp A→B at 2.5 h, 2 μM (MDR1)	Rank of Papp (MDR1-MDCKII cells)	SMILES	IC50 (neural stem cells)	further results
17.1 µM	–	–	COc1c(C)c2c(c(O)c1C/C=C(\C)CCC(=O)OCCN1CCN(C(=O)OC(C)(C)C)CC1)C(=O)OC2 [Compound 2]	353 µM	–
–	–	–	COc1c(C)c2c(c(O)c1C/C=C(\C)CCC(=O)N1CCN(C)CC1)C(=O)OC2 [Compound 4]	493 µM	–
–	–	–	COc1c(C)c2c(c(O)c1C/C=C(\C)CCC(=O)NCCCN1CCC1)C(=O)OC2 [Compound 5]	182 µM	–
24.7 µM	–	–	COc1c(C)c2c(c(O)c1C/C=C(\C)CCC(=O)NCCN1CCCC1)C(=O)OC2 [Compound 6]	70.8 µM	–
–	0.556 ×10⁻⁶ cm/s	Low	C[C@H]1O[C@@H](O[C@H]2[C@@H](O)C[C@H](O[C@H]3[C@@H](O)C[C@H](O[C@H]4CC[C@@]5(C)[C@H](CC[C@@H]6[C@@H]5C[C@@H](O)[C@]5(C)[C@@H](C7=CC(=O)OC7)CC[C@]65O)C4)O[C@@H]3C)O[C@@H]2C)C[C@H](O)[C@@H]1O [Digoxin]	–	Papp B→A at 2.5 h, 2 μM (MDR1): 11.8 ×10⁻⁶ cm/s; efflux ratio at 2.5 h, 2 μM (MDR1): 21.2
48 µM	–	–	COc1c(C)c2c(c(O)c1C/C=C(\C)CCC(=O)OCCN1CCOCC1)C(=O)OC2 [MMF (1), Mycophenolate mofetil]	31.2 µM	–
–	29.5 ×10⁻⁶ cm/s	High	COCCc1ccc(OCC(O)CNC(C)C)cc1 (stereo not drawn) [Metoprolol]	–	–
–	0.198 ×10⁻⁶ cm/s	Low	CC(C)(C)NCC(O)COc1cccc2c1CC(O)C(O)C2 (stereo not drawn) [Nadolol]	–	–
–	–	–	CC(C)NCC(O)COc1cccc2ccccc12 (stereo not drawn) [Propranolol]	–	fraction unbound at 4 h, 2 μM [1]: 0.023
–	–	–	CN1CCc2cccc3c2[C@H]1Cc1ccc(O)c(O)c1-3 [apomorphine]	–	viability of lung-BMICs (BT478) compared to vehicle control [2]: significantly inhibited BMIC viability
